Results published in the NIST ThermoML archive (doi:10.1021/je060157s).
Where “and” joins values, the source holds several entries; their conditions need not be identical. Equal values may be shown once. ± gives the expanded uncertainty stated by the source.

Conditions: Liquid

| vapor or sublimation pressure (293.15 K) [kPa] | vapor or sublimation pressure (303.15 K) [kPa] | vapor or sublimation pressure (313.15 K) [kPa] | vapor or sublimation pressure (323.15 K) [kPa] | vapor or sublimation pressure (333.15 K) [kPa] | vapor or sublimation pressure (343.15 K) [kPa] | vapor or sublimation pressure (353.15 K) [kPa] | vapor or sublimation pressure (363.15 K) [kPa] | vapor or sublimation pressure (293.33 K) [kPa] | vapor or sublimation pressure (293.34 K) [kPa] | vapor or sublimation pressure (343.42 K) | vapor or sublimation pressure (353.43 K) | vapor or sublimation pressure (363.43 K) [kPa] | SMILES | vapor or sublimation pressure (303.35 K) | vapor or sublimation pressure (313.37 K) | vapor or sublimation pressure (323.39 K) | vapor or sublimation pressure (333.39 K) |
| --- | --- | --- | --- | --- | --- | --- | --- | --- | --- | --- | --- | --- | --- | --- | --- | --- | --- |
| 2.333 ± 0.091 | 4.24 ± 0.12 | 7.376 ± 0.15 | 12.34 ± 0.22 | 19.92 ± 0.31 | 31.17 ± 0.45 | 47.38 ± 0.66 | 70.18 ± 0.94 | – | – | – | – | – | O [water] | – | – | – | – |
| 0.006 ± 0.006 | 0.016 ± 0.007 | 0.041 ± 0.009 | 0.095 ± 0.014 | 0.203 ± 0.021 | 0.404 ± 0.033 | 0.759 ± 0.055 | 1.352 ± 0.079 | 0.009952 ± 0.0035 | 0.009956 ± 0.0035 | 0.515 ± 0.022 kPa and 0.5189 ± 0.022 kPa | 0.902 ± 0.032 kPa and 0.9053 ± 0.032 kPa | 1.556 ± 0.041 | CC(O)c1ccccc1 (stereo not given) [1-phenylethanol] | 0.02451 ± 0.0047 kPa and 0.0219 ± 0.0046 kPa | 0.06281 ± 0.0061 kPa and 0.06414 ± 0.0062 kPa | 0.1472 ± 0.013 kPa and 0.136 ± 0.013 kPa and 0.1419 ± 0.013 kPa | 0.2635 ± 0.016 kPa and 0.2649 ± 0.016 kPa |
